Entries after “also recorded” stand apart in the source; their conditions may differ.
Key:
K-Ras G12D [1] = target: T1, K-Ras G12D (Homo sapiens, UniProt P01116, G12D); experiment: Western blot of K-Ras G12D protein levels in Panc 08.13 cancer cells after peptide treatment; type: cell-based; conditions: Panc 08.13 cells (homozygous K-Ras G12D), 30 minutes treatment, 0.3 mM
Source text: Example 5. Degradation of K-Ras G12D using Cyclic Peptides. […] Proteolysis-targeting chimeras (PROTACs) using Hif and other proteins are described in Toure and Crews, 2016, Angew. Chem. Int. Ed, 55:2-10, the entire contents of which are incorporated herein by reference. The 7b-Hif PROTAC was further conjugated with the HIV-TAT cell-penetrating peptide […] (SEQ ID NO: 24).
Cell culture. Panc 08.13 cell lines were purchased from American Type Culture collection and cultured as specified by the provider.
Immunoblotting. Western blots were performed according to standard protocols. Briefly, cells were lysed with cell lysis buffer (Cell Signaling Technology) containing protease and phosphatase inhibitors (Cell Signaling Technology). Cell lysates were quantified with a Bradford protein assay (Thermo Scientific) and prepared for gel electrophoresis in Laemmli sample buffer and reducing agent. 20 μg of cell lysate were added to precast polyacrylamide gels (Bio-Rad) and proteins were separated by electrophoresis followed by transfer to PVDF membrane. Membranes were then blocked and probed with an anti-Ras or anti-Tubulin primary antibody followed by horseradish peroxidase-conjugated secondary antibody (Cell Signaling Technology). The bands were visualized by chemiluminescence (Thermo Scientific).

K-Ras G12D [2] = target: T1, K-Ras G12D; experiment: ELISA binding assay of biotinylated cyclic peptides to K-Ras G12D
Procedure: For ELISA assays, 1 μM of the biotinylated hit peptides were first immobilized onto Neutravidin ELISA plates (Pierce) for 2 hours at room temperature in binding buffer (TBST with 0.1% BSA). […] After washing three times with TBST the plate was then treated with a 1:1000 dilution of the anti-RAS rabbit mAb (Cell Signaling Technology) in binding buffer for thirty minutes, washed three times with TBST, incubated with anti-Rabbit-HRP secondary antibody (Cell Signaling Technology) for thirty minutes and developed with TMB substrate (KPL) for five to ten minutes. The absorbance of samples at 450 nm wavelength was measured using a spectrophotometer.

`CC(C)C[C@@H]1NC(=O)[C@@H](N)Cc2cn(nn2)CCCC[C@@H](C(=O)NCCCOCCOCCOCCCNC(=O)CCCC[C@@H]2SC[C@@H]3NC(=O)N[C@@H]32)NC(=O)[C@H](CCCNC(=N)N)NC(=O)[C@@H]2CCCN2C(=O)CNC(=O)[C@H](CCCNC(=N)N)NC1=O` [7b5, Pra-LRGPR-Az4-PEG-Biotin] was tested, and the “levels of K-Ras G12D protein by Western blot” value (K-Ras G12D [1]) was “induce proteasomal degradation of K-Ras G12D”.

In the case of `CC(C)C[C@@H]1NC(=O)[C@@H](N)Cc2cn(nn2)CCCC[C@@H](C(=O)NCCCOCCOCCOCCCNC(=O)CCCC[C@@H]2SC[C@@H]3NC(=O)N[C@@H]32)NC(=O)[C@H](CCCNC(=N)N)NC(=O)[C@H](CC(=O)O)NC(=O)CNC(=O)[C@H](CCCNC(=N)N)NC1=O` [7b, Pra-LRGDR-Az4-PEG-Biotin], the “binding to K-Ras G12D in ELISA (absorbance units), result in words” value (K-Ras G12D [2]) is reported as “strongest binding fluorescence; also recorded: highest affinity”.
